Experimental data: US5650428A, “Arylsulfonamide derivative and pharmaceutical compositions and use thereof” (NKK Corporation, priority 1993, dated 1997)
Where a name gives a salt, the structure may show the parent alone.

What follows are compounds tested on rat platelet (assay: Inhibitory activity of aggregation in rat platelet). Details: rat platelet rich plasma, arachidonic acid (final concentration 0.5 mM) as inducer; read-out: C: Inhibitory activity of aggregation in rat platelet (IC50; μM).
Type: cell-based
Protocol: (3) Inhibitory Activity of Aggregation in Rat Platelet The abdomen of etherized rat was open, and blood was taken from the abdominal arteries, using a sodium citrate solution (final concentration was 0.38%). The blood was centrifuged at 1100 rpm for 10 minutes, and the supernatent was separated as the platelet rich plasma. The plasma was further centrifuged at 2000 rpm for 15 minutes to obtain the supernatent as a platelet poor plasma. The platelet rich plasma (280 μl) was placed in a measuring cuvette and preincubated for 1 minute at 37° C. Then, a sample solution (10 μl) was added. After 2 minutes, an arachidonic acid solution (final concentration=0.5 mM) (10 μl) was added as an inducer. The change in light transmission was recorded for 5 minutes.

In order of rising IC50:
1. CCSCC[C@H](NS(=O)(=O)c1ccc(Br)cc1)C(=O)Nc1ccc(CC(=O)O)cc1 [Example 245, (S)-2-(4-bromobenzenesulfonylamino)-N-(4-(carboxymethyl)phenyl)-4-ethylthiobutanamide]  0.055 µM
2. CCCCC(NS(=O)(=O)c1ccc(Cl)cc1)C(=O)Nc1ccc(CC(=O)O)cc1 (racemic) [Example 222, (RS)-N-(4-(carboxymethyl)phenyl)-2-(4-chlorobenzenesulfonylamino)hexanamide]  0.17 µM
3. CCSCC[C@H](NS(=O)(=O)c1ccc(Cl)cc1)C(=O)Nc1ccc(CC(=O)O)cc1 [Example 243, (S)-N-(4-(carboxymethyl)phenyl)-2-(4-chlorobenzenesulfonylamino)-4-ethylthiobutanamide]  0.17 µM
4. O=C(O)c1ccc(NC(=O)[C@H](Cc2ccccc2)NS(=O)(=O)c2ccc(Br)cc2)cc1 [Example 256, (S)-2-(4-bromobenzenesulfonylamino)-N-(4-carboxyphenyl)-3-phenylpropanamide]  0.17 µM
5. CCC(NS(=O)(=O)c1ccc(Cl)cc1)C(=O)Nc1ccc(CC(=O)O)cc1 (racemic) [Example 220, (RS)-N-(4-(carboxymethyl)phenyl)-2-(4-chlorobenzenesulfonylamino) butanamide]  0.53 µM
6. CCCC(NS(=O)(=O)c1ccc(Cl)cc1)C(=O)Nc1ccc(CC(=O)O)cc1 (racemic) [Example 221, (RS)-N-(4-(carboxymethyl)phenyl)-2-(4-chlorobenzenesulfonylamino)pentanamide]  0.53 µM
7. O=C(O)Cc1ccc(NC(=O)[C@H](Cc2c[nH]c3ccccc23)NS(=O)(=O)c2ccc(Cl)cc2)cc1 [Example 258, (S)-N-(4-(carboxymethyl)phenyl)-2-(4-chlorobenzenesulfonylamino)-3-(3-indolyl) propanamide]  0.53 µM
8. CCCCCCC(NS(=O)(=O)c1ccc(Cl)cc1)C(=O)Nc1ccc(CC(=O)O)cc1 (racemic) [Example 230, (RS)-N-(4-(carboxymethyl)phenyl)-2-(4-chlorobenzenesulfonylamino)octanamide]  0.55 µM
9. CCCC[C@H](NS(=O)(=O)c1ccc(Cl)cc1)C(=O)Nc1ccc(CCC(=O)O)cc1 [Example 225, (S)-N-(4-(2-carboxyethyl)phenyl)-2-(4-chlorobenzenesulfonylamino)hexanamide]  0.56 µM
10. O=C(O)CCCNC(=O)C(COC1CCCCO1)NS(=O)(=O)c1ccc(Cl)cc1 (racemic) [Example 47, (RS)-N-(3-carboxypropyl)-2-(4-chlorobenzenesulfonylamino)-3-(tetrahydropyran-2-yloxy)propanamide]  1.5 µM
11. O=C(O)CCCCNC(=O)C(COC1CCCCO1)NS(=O)(=O)c1ccc(Cl)cc1 (racemic) [Example 48, (RS)-N-(4-carboxybutyl)-2-(4-chlorobenzenesulfonylamino)-3-(tetrahydropyran-2-yloxy)propanamide]  1.7 µM
12. O=C(O)CCCCCNC(=O)C(Cn1ccnc1)NS(=O)(=O)c1ccc(Cl)cc1 (racemic) [Example 100, (RS)-N-(5-carboxypentyl)-2-(4-chlorobenzenesulfonylamino)-3-(1H-imidazol-1-yl)propanamide hydrochloride]  1.7 µM
13. O=C(O)CCCCNC(=O)C(COc1cccnc1)NS(=O)(=O)c1ccc(Cl)cc1 (racemic) [Example 119, (RS)-N-(4-carboxybutyl)-2-(4-chlorobenzenesulfonylamino)-3-(pyridin-3-yloxy)propanamide hydrochloride]  1.7 µM
14. CC(C)C(NS(=O)(=O)c1ccc(Cl)cc1)C(=O)Nc1ccc(CC(=O)O)cc1 (racemic) [Example 231, (RS)-N-(4-(carboxymethyl)phenyl)-2-(4-chlorobenzenesulfonylamino)-3-methylbutanamide]  1.7 µM
15. O=C(O)CCc1ccc(NC(=O)C(CC2CCCCC2)NS(=O)(=O)c2ccc(Cl)cc2)cc1 (racemic) [Example 261, (RS)-N-(4-(2-carboxyethyl)phenyl)-2-(4-chlorobenzenesulfonylamino)-3-cyclohexylpropanamide]  2.3 µM
